What was measured:
[1] = test system: Zebrafish tremblor mutant; assay: Zebrafish screening: soaking; type: in vivo; conditions: for Soaking: % Rescued: Table 1, tremblor mutants, 20 μM; for Rescue percent: Table 2, tremblor mutant soaked in 20 μM test compounds
Experimental: (§1) We screened our above mention library by using tremblor mutants Zebrafish embryos. […] Compounds were screened for their ability to suppress cardiac fibrillation and/or restore rhythmic synchronized contraction. Briefly, we treated the embryo by soaking in 20 μM solution or injecting compounds after 24 hours fertilization and observed the phenotype after 48 hours. Further, we determined the structure-activity relationship (SAR) between the active compound's structures and the ability to suppress cardiac fibrillation and/or restore rhythmic synchronized contraction.
Zebrafish tremblor mutant eggs were collected after fertilization, and arrayed in 24-well plates (20 twenty embryos/well) in 500 μL buffer. After 24 hour fertilization in 29° C., 20 μM testing compound was added and using E3 buffer as background control. After 48 hour fertilization in 29° C., phenotypic changes were observed using a high magnification dissecting microscope.

[2] = test system: Zebrafish tremblor mutant; assay: Zebrafish screening: injection into tremblor mutants; type: in vivo; conditions: for Injection into tremblor Mutants: % Rescued: Table 1; for Average rescue ratio: Table 4, over all screens
Experimental: as §1
(§2) Zebrafish tremblor mutant eggs were collected at 1 cell stages. 1 nL of compound in Daneu's buffer were injected into the embryo. After 24 hours the embryo was arrayed in 24-well plates (20 twenty embryos/well) in 500 μL buffer. After 48 hour fertilization in 29° C., phenotypic changes were observed using a high magnification dissecting microscope.

[3] = test system: Zebrafish embryo injected with morpholino to NCX1h; assay: Zebrafish screening: injection with morpholino to NCX1h; type: in vivo; conditions: for Injection with Morpholino: % Rescued: Table 1; for Rescue percent: Table 3, morpholino mutants
Experimental: as §1
as §2, with “Zebrafish” for “Zebrafish tremblor mutant”, “buffer and 1 nL of morpholino (1 mM) to NCX1h was” for “buffer were”

NCX1hMO injected embryos = assay: Restoration of coordinated cardiac contractions in NCX1h morpholino embryos; type: in vivo, zebrafish; conditions: linker-attached compounds
Experimental: (§3) VDAC2 mRNA and morpholino antisense oligos (5′-[…]-3′) (Genetools) (SEQ ID NO: 9) were injected into one-cell stage embryos collected from crosses of tre^tc318 heterozygotes. Cardiac performance was analyzed by visual inspection on 1 dpf. The tre mutant embryos were identified either by observing the fibrillation phenotype at 2-3 dpf or by genotyping as previously described (Langenbacher et al., 2005).
(§4) Chemicals from a synthetic library (Castellano et al., 2007, J Am Chem Soc 129, 5843-5845; Choi et al., 2011, Development 138, 1173-1181; Cruz et al., 2011, Proc Natl Acad Sci USA 108, 6769-6774) and from Biomol International LP were screened for their ability to partially or completely restore persistent heartbeat in tre embryos. 12 embryos collected from crosses of tre^tc318 heterozygotes were raised in the presence of individual compounds at a concentration of 10 μM from 4 hpf (Choi et al., 2011). Cardiac function was analyzed by visual inspection at 1 and 2 dpf. The hearts of tre^tc318 embryos manifest a chaotic movement resembling cardiac fibrillation with intermittent contractions in rare occasion (Ebert et al., 2005; Langenbacher et al., 2005). Compounds that elicit persistent coordinated cardiac contractions were validated on large number of tre mutant embryos and NCX1h morphants (>500 embryos).

[4] = test system: zebrafish tremblor (tre) embryos; assay: Restoration of coordinated cardiac contractions in tre embryos; type: in vivo; conditions: tremblor embryos
Experimental: as §3, §4

VDAC2 = assay: Affinity bead pull down from zebrafish embryo lysate with mass spectrometry; type: binding; conditions: zebrafish embryonic lysate, affinity agarose beads
Experimental: For pull down assays mono-N-Boc protected 2,2′-(ethylenedioxy)bis(ethylamine) was attached to the carboxylic ester of efsevin and its derivatives through the amide bond. After removal of the Boc group using TFA, the primary amine was coupled to the carboxylic acid of Affi-Gel 10 Gel (Biorad). Two-day-old zebrafish embryos were deyolked by centrifugation before being lysed with Rubinfeld's lysis buffer (Rubinfeld et al., 1993, Science 262, 1731-1734). The lysate was precleaned by incubation with Affi-Gel 10 Gel to eliminate non-specific binding. Precleaned lysate was incubated with affinity beads overnight. Proteins were eluted from the affinity beads and separated on SDS-PAGE. Protein bands of interest were excised. Gel plugs were dehydrated in acetonitrile (ACN) and dried completely in a Speedvac. Samples were reduced and alkylated with 10 mM dithiotreitol and 10 mM TCEP solution in 50 mM NH4HCO3 (30 min at 56° C.) and 100 mM iodoacetamide (45 min in dark), respectively. Gel plugs were washed with 50 mM NH4HCO3, dehydrated with ACN, and dried down in a Speedvac. Gel pieces were then swollen in digestion buffer containing 50 mM NH4HCO3, and 20.0 ng/μL of chymotrypsin (25° C., overnight). Peptides were extracted with 0.1% TFA in 50% ACN solution, dried down and resuspended in LC buffer A (0.1% formic acid, 2% ACN).
Extracted peptides were analyzed by nano-flow LC/MS/MS on a Thermo Orbitrap with dedicated Eksigent nanopump using a reversed phase column (New Objective). The flow rate was 200 nL/min for separation: mobile phase A contained 0.1% formic acid, 2% ACN in water, and mobile phase B contained 0.1% formic acid, 20% water in ACN. The gradient used for analyses was linear from 5% B to 50% B over 60 min, then to 95% B over 15 min, and finally keeping constant 95% B for 10 min. Spectra were acquired in data-dependent mode with dynamic exclusion where the instrument selects the top six most abundant ions in the parent spectra for fragmentation. […]

[5] = Defibrillator activity of efsevin enantiomers
[6] = Table 4, injection into tremblor mutants

| SMILES | Injection into tremblor Mutants: % Rescued [2] | Screen 1 Rescue percent [2, 6] | Average rescue ratio [2] | Injection with Morpholino: % Rescued [3] | Rescue percent [3] | further results |
| --- | --- | --- | --- | --- | --- | --- |
| CCOC(=O)C1=CCN(S(=O)(=O)c2ccc(C)cc2)C1c1ccc(C(=O)OCC)cc1 (racemic) [F7-I-A06] |  |  |  |  |  | Soaking: % Rescued [1]: 17/88%; Rescue percent [1]: 88% |
| CCOC(=O)C1=CCN(S(=O)(=O)c2ccc(C)cc2)C1c1cccc(C)c1 (racemic) [F7-I-B12] |  |  |  |  |  | Soaking: % Rescued [1]: 19/78%; Rescue percent [1]: 78% |
| CCOC(=O)C1=CCN(S(=O)(=O)c2ccccc2C)C1c1ccc(F)cc1 (racemic) [F7-I-G04] | 26/85% | 78% | 85% | 8/75% | 75% | Screen 2 Rescue percent [2, 6]: 88% |
| CCOC(=O)C1=CCN(S(=O)(=O)c2ccc(Cl)cc2)C1c1ccc(Br)cc1 (racemic) [F7-I-H05] | 43/74% | 86% | 74% | 8/88% | 88% | Screen 2 Rescue percent [2, 6]: 69%; Screen 3 Rescue percent [2, 6]: 75% |
| CCOC(=O)C1=CCN(S(=O)(=O)c2ccc(F)cc2)C1c1ccc(F)cc1 (racemic) [F7-II-A01] | 27/74% | 74% | 74% | 8/38% | 38% |  |
| CCOC(=O)C1=CCN(S(=O)(=O)c2ccc(Cl)cc2)C1c1ccccc1 (racemic) [F7-II-A11] | 30/73% | 73% | 73% | 6/0% | 0% |  |
| CCOC(=O)C1=CCN(S(=O)(=O)c2ccc(F)cc2)C1c1ccccc1 (racemic) [F7-II-B01] | 21/81% | 91% | 81% | 6/67% | 67% | Screen 2 Rescue percent [2, 6]: 79% |
| CCOC(=O)C1=CCN(S(=O)(=O)c2ccc(C)cc2)C1c1ccccc1 (racemic) [F7] |  |  |  |  |  | Rescue percent [1]: 72% |
| CCOC(=O)C1=CCN(S(=O)(=O)c2ccccc2F)C1c1ccc(Br)cc1 (racemic) [Formula Im] |  |  |  | 8/88% |  |  |
| CCOC(=O)C1=CCN(S(C)(=O)=O)C1c1ccccc1 (racemic) [OK-C19] |  |  |  |  |  | restoration of rhythmic contractions in NCX1hMO injected embryos (NCX1hMO injected embryos): unable to induce rhythmic contraction; restoration of rhythmic contractions in tremblor embryos [4]: failed to rescue the tremblor phenotype; pull down of the 32 kD band (VDAC2) (VDAC2): not detected |
| CCOC(=O)C1=CCN(S(=O)(=O)c2cccc(F)c2)C1c1ccc(F)cc1 (racemic) [OK-C125] |  |  |  |  |  | restoration of rhythmic contractions in NCX1hMO injected embryos (NCX1hMO injected embryos): retained their ability to restore rhythmic contractions; restoration of rhythmic contractions in tremblor embryos [4]: restored rhythmic contractions in the majority of tremblor embryos; pull down of the 32 kD band (VDAC2) (VDAC2): pulled down |
| CCOC(=O)C1=CCN(S(=O)(=O)c2ccc(C)cc2)[C@@H]1c1ccccc1 [(R)-Efsevin] |  |  |  |  |  | defibrillator activity of efsevin: active enantiomer [5]: Active Antipode |
| Cc1ccc(S(=O)(=O)N2CC=C(C(=O)O)C2c2ccccc2)cc1 (stereo not drawn) [F7 acid] |  |  |  |  |  | Rescue percent [1]: 21% |
| CCOC(=O)C1=CCN(S(=O)(=O)c2ccc(C)cc2)C1c1ccc(F)cc1 (stereo not drawn) [F7-I-B04] |  |  |  |  |  | Soaking: % Rescued [1]: 8/75%; Rescue percent [1]: 75% |
| CCOC(=O)C1=CCN(S(=O)(=O)c2ccc(Cl)cc2)C1c1ccc(Cl)cc1 (stereo not drawn) [F7-I-B07] |  |  |  |  |  | Soaking: % Rescued [1]: 18/80%; Rescue percent [1]: 80% |
| CCOC(=O)C1=CCN(S(=O)(=O)c2ccc(F)cc2)C1c1ccc(Cl)c(Cl)c1 (stereo not drawn) [F7-I-F05] | 10/80% | 80% | 80% | 14/50% | 50% |  |
| CCOC(=O)C1=CCN(S(=O)(=O)c2ccc(F)cc2)C1c1cccc(C)c1 (stereo not drawn) [F7-I-F09] | 15/87% | 87% | 87% | 8/75% | 75% |  |
| CCOC(=O)C1=CCN(S(=O)(=O)c2cccc(Cl)c2)C1c1cccc(Cl)c1 (stereo not drawn) [F7-I-F11] | 28/79% | 80% | 79% | 8/88% | 88% | Screen 2 Rescue percent [2, 6]: 78% |
| CCOC(=O)C1=CCN(S(=O)(=O)c2ccccc2Br)C1c1ccc(Cl)cc1 (stereo not drawn) [F7-I-G09] | 23/87% | 78% | 78% | 6/67% | 67% |  |
| CCOC(=O)C1=CCN(S(=O)(=O)c2ccccc2F)C1c1ccc(Cl)cc1 (stereo not drawn) [F7-I-H01] | 12/83% | 83% | 83% | 8/63% | 63% |  |
| CCOC(=O)C1=CCN(S(=O)(=O)c2cccc(F)c2)C1c1ccc(F)cc1 (stereo not drawn) [F7-II-B12] | 21/76% | 76% | 76% |  |  |  |
| CCOC(=O)C1=CCN(S(=O)(=O)c2ccccc2F)C1c1ccc(F)cc1 (stereo not drawn) [Formula In] |  |  |  | 8/88% |  |  |
| CCOC(=O)C1=CCN(S(=O)(=O)c2ccccc2F)C1c1ccc(C)cc1 (stereo not drawn) [Formula Io] |  |  |  | 8/75% |  |  |
